# Test results reported in patent US8722727B2, “Antifungal agents” (Seynix, Inc., priority 2008, dated 2014).
# Biological target: T1, glucan synthase (GS) (Candida albicans, UniProt O13428)
# T1 construct: Extraction of GS activity from membranes was performed at a protein concentration of 5 mg/mL in extraction buffer; endogenous in cells; host or cells: Candida albicans MY1055 (membrane fraction, detergent extraction, product entrapment)
# Experiment: Glucan synthase inhibition (polymerization assay, 96-well)
# Assay type: biochemical
# Settings: glucan synthase prepared from Candida albicans MY1055; 60 min incubation at 22° C.; read-out: Candida Albicans GS IC50 (ng/mL) (converted)
# Protocol: The in vitro evaluation of glucan synthase inhibitory activity of compounds was measured in a polymerization assay in 96-well format. Each well contained 100 μL of ^3H-UDPG at 0.5 mM (6000 to 8000 dpm/nmol), 50 mM HEPES pH 7.5 (Sigma), 10% w/v glycerol (Sigma), 1.5 mg/mL bovine serum albumin (Sigma A 9647. Lot 44H0190), 25 mM KF (Fisher), 1 mM EDTA (Gibco ULTRAPURE), 25 μM GTP-γ-S, enzyme sufficient to give 3 to 6 nmoles incorporation during the 60 min incubation at 22° C., and test compound added from wells in 3-fold serial dilutions in 100% DMSO (1 μL/well). The reaction was stopped by the addition of 100 μL of 20% trichloroacetic acid. Plates were chilled for a minimum of 10 min, and precipitated glucan collected by filtration on GF/C plates (Packard UNIFILTER®-96), washed with 5 cycles of water (about 1 mL/well each cycle) using a Packard FILTERMATE HARVESTER. 40 μL/well scintillation fluid (Packard ULTIMA GOLD TM-XR) was added and the sealed plates counted in a WALLAC BETA counter in top-counting mode at an efficiency of approximately 40%.
# Stock solutions were stored at 10 mg/mL in DMSO at −20° C. For each new enzyme preparation, the initial titration performed started at 1 mg/mL, which was prepared by making a 10-fold dilution in DMSO (5 μL to 50 μL). 40 μL of this stock was placed in column 12 of a round-bottomed 96-well microtiter plate. 40 μL DMSO was added to columns 1 to 11 in the same row and ten 3-fold serial dilutions performed, by transferring 20 μL from column 12 to column 11 etc., with 4 mixings before each transfer. No test compound was transferred to from column 2 to column 1. Duplicate aliquots of 1 μL of all 12 dilutions were then transferred to the side walls of a 96-well Bioblock 1.1 mL plate (Fisher brand) to create two rows. Graphs of the primary data were created in PRISM software (the average of two determinations) using PRISM's curve fitting program (sigmoidal dose response non-linear regression). The amount of compound required to inhibit glucan synthase activity by 50% in this assay (IC50-ng/mL) was calculated.
# Routine analysis was performed with glucan synthase (GS) prepared from Candida albicans MY1055 by the following procedure: MY1055 was grown in 10 liters YPD medium (10 g yeast extract, 20 g tryptone, 20 g glucose per liter) with vigorous shaking at 30° C., to early stationary phase. Cells were harvested by centrifugation, the pellet was washed and frozen at −70° C. until breakage. Thawed pellets were shaken with an equal volume of breakage buffer (50 mM HEPES pH 7.4, 10% glycerol, 1 mM EDTA, 1 mM PMSF, 1 mM DTT) and 4 times their weight of 0.5 mm acid washed glass beads for 2 hours at 4° C. Extent of breakage was assessed visually at 40× magnification. After low speed centrifugation to remove cell debris, the supernatant was centrifuged at 100,000×g for 60 min. to separate membranes plus ribosomes from cytoplasmic components. Membranes were further washed two additional times with breakage buffer using the same centrifugation conditions and finally suspended in breakage buffer at 25 to 30 mg/mL protein (Biorad) for storage at −70° C. Extraction of GS activity from membranes was performed at a protein concentration of 5 mg/mL in extraction buffer (50 mM NaPO4 pH 7.5, 0.1 M KCl, 0.1M Na citrate, 20% glycerol, 5 μM GTP-γ-S, 1 mM DTT, 1 mM PMSF, 3 μg/mL pepstatin) plus 0.25% W1 by gentle mixing at 4° C. for 60 min, followed by centrifugation at 100,000×g for 60 min. After centrifugation, clear supernatant was removed from a pellet consisting of a hard layer usually with small amounts of gelatinous unextracted membranes above it.
# Trapping was initiated immediately by 5-fold dilution in trapping buffer (50 mM HEPES pH 7.5, 10 mM KF, 1 mM EDTA, 2 mg/mL BSA) plus 2.5 mM UDPG and 10 μM GTP-γ-S. After incubation at 25° C. for 60 to 90 minutes, glucan was harvested by low speed centrifugation (3,000×g, 10 min). […]
# T1 sequence (O13428 1-1897): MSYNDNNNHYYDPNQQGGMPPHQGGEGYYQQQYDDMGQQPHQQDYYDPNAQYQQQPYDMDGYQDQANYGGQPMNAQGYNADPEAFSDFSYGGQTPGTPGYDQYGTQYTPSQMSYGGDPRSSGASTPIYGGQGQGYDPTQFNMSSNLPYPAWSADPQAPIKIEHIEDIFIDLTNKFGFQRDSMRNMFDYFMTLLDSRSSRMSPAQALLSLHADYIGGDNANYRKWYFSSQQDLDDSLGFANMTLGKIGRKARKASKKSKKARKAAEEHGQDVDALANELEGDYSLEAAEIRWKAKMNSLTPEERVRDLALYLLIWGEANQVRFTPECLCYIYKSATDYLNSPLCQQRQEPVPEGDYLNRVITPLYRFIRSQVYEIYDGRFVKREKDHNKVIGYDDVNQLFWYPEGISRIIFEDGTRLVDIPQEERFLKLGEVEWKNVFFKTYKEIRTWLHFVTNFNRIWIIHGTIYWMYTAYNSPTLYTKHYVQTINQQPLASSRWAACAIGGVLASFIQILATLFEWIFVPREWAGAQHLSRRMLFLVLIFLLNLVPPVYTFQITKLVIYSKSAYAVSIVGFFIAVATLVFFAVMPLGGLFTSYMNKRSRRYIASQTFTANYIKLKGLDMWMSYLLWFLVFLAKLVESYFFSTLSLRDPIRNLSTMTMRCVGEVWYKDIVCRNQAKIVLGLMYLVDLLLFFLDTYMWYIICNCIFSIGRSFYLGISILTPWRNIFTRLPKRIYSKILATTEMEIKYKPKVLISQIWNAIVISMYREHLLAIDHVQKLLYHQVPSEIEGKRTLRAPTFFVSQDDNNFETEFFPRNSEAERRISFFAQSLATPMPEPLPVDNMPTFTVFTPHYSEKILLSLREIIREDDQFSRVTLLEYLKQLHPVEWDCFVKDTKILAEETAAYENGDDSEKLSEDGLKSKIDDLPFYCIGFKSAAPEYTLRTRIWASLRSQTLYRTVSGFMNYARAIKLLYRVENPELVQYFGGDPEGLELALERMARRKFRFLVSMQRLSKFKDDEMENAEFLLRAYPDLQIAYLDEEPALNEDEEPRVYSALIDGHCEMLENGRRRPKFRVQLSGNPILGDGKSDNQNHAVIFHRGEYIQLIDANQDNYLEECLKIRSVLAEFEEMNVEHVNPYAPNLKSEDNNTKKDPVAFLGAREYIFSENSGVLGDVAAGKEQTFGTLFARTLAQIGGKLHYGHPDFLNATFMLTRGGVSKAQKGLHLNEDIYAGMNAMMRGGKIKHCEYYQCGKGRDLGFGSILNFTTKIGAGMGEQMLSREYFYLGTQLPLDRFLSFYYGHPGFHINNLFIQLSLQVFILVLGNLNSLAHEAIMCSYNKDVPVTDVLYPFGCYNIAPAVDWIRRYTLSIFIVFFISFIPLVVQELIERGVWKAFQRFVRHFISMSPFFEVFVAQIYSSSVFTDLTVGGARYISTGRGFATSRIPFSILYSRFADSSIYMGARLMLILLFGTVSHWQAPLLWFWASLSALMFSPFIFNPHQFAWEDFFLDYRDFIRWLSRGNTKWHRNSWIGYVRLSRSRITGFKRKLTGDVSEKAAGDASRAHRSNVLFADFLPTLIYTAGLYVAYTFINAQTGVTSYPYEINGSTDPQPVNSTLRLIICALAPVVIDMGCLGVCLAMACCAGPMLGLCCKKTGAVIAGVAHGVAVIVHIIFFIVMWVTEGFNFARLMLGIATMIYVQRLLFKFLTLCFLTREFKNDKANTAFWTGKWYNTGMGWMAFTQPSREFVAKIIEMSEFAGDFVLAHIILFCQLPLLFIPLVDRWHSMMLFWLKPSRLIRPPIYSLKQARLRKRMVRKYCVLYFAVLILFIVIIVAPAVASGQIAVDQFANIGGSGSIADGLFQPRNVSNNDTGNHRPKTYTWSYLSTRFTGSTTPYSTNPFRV
# T1 sequence (O42825 1-195 partner limits assumed): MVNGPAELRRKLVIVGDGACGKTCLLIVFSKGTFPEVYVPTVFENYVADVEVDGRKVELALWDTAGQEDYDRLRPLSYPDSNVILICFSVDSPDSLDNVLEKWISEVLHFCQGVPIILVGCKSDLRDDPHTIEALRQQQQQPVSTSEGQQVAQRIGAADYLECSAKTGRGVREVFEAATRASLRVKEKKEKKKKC
row,IC50,Compound
1,8.77 nM,"CC(C)[C@@H](C)[C@@]1(C)CC[C@]2(C)[C@H]3CC[C@@H]4[C@@]5(COC[C@@]4(C)[C@@H](OCCNCCCN(C)C)[C@H](n4nnc(N)n4)C5)C3=CC[C@@]2(C)[C@@H]1C(=O)O [Example 36, (1S,4aR,6aS,7R,8R,10aR,10bR,12aR,14R,15R)-14-(5-amino-2H-tetrazol-2-yl)-15-[2-[[3-(dimethylamino)propyl]amino]ethoxy]-8-[(1R)-1,2-dimethylpropyl]-1,6,6a,7,8,9,10,10a,10b,11,12,12a-dodecahydro-1,6a,8,10a-tetramethyl-4H-1,4a-propano-2H-phenanthro[1,2-c]pyran-7-carboxylic acid]"
2,3.06 nM,"CC(C)[C@@H](C)[C@@]1(C)CC[C@]2(C)[C@H]3CC[C@@H]4[C@@]5(COC[C@@]4(C)[C@@H](OC[C@@](C)(N)C(C)C)[C@H](n4nnc(N)n4)C5)C3=CC[C@@]2(C)[C@@H]1C(N)=O [Example 51, (1S,4aR,6aS,7R,8R,10aR,10bR,12aR,14R,15R)-15-[[(2S)-2-amino-2,3-dimethylbutyl]oxy]-14-(5-amino-2H-tetrazol-2-yl)-8-[(1 R)-1,2-dimethylpropyl]-1,6,6a,7,8,9,10,10a,10b,11,12,12a-dodecahydro-1,6a,8,10a-tetramethyl-4H-1,4a-propano-2H-phenanthro[1,2-c]pyran-7-carboxamide]"
3,6.11 nM,"CC(C)[C@@H](C)[C@@]1(C)CC[C@]2(C)[C@H]3CC[C@@H]4[C@@]5(COC[C@@]4(C)[C@@H](OC[C@H](N)C(C)(C)C)[C@H](n4nnc(N)n4)C5)C3=CC[C@@]2(C)[C@@H]1C(=O)O [Example 22, (1S,4aR,6aS,7R;8R,10aR,10bR,12aR,14R,15R)-15-[[(2R)-2-amino-3,3-dimethylbutyl]oxy]-14-(5-amino-2H-tetrazol-2-yl)-8-[(1R)-1,2-dimethylpropyl]-1,6,6a,7,8,9,10,10a,10b,11,12,12a-dodecahydro-1,6a,8,10a-tetramethyl-4H-1,4a-propano-2H-phenanthro[1,2-c]pyran-7-carboxylic acid]"
4,8.61 nM,"CC(C)N[C@@](C)(CO[C@H]1[C@H](n2nnc(N)n2)C[C@@]23COC[C@]1(C)[C@@H]2CC[C@H]1C3=CC[C@@]2(C)[C@H](C(=O)O)[C@@](C)([C@H](C)C(C)C)CC[C@]12C)C(C)C [Example 57, (1S,4aR,6aS,7R,8R,10aR,10bR,12aR,14R,15R)-14-(5-amino-2H-tetrazol-2-yl)-15-[[(2R)-2,3-dimethyl-2-[(1-methylethyl)amino]butyl]oxy]-8-[(1R)-1,2-dimethylpropyl]-1,6,6a,7,8,9,10,10a,10b,11,12,12a-dodecahydro-1,6a,8,10a-tetramethyl-4H-1,4a-propano-2H-phenanthro[1,2-c]pyran-7-carboxylic acid]"
5,56.5 nM,"CC(C)[C@@H](C)[C@@]1(C)CC[C@]2(C)[C@H]3CC[C@@H]4[C@@]5(COC[C@@]4(C)[C@@H](OC[C@](C)(N)C(C)C)[C@H](n4nnnc4N)C5)C3=CC[C@@]2(C)[C@@H]1C(=O)O [Example 9, (1S,4aR,6aS,7R,8R,10aR,10bR,12aR,14R,15R)-15-[[(2R)-2-amino-2,3-dimethylbutyl]oxy]-14-(5-amino-1H-tetrazol-1-yl)-8-[(1R)-1,2-dimethylpropyl]-1,6,6a,7,8,9,10,10a,10b,11,12,12a-dodecahydro-1,6a,8,10a-tetramethyl-4H-1,4a-propano-2H-phenanthro[1,2-c]pyran-7-carboxylic acid]"
6,5.86 nM,"CNC1(CO[C@H]2[C@H](n3nnc(N)n3)C[C@@]34COC[C@]2(C)[C@@H]3CC[C@H]2C4=CC[C@@]3(C)[C@H](C(=O)O)[C@@](C)([C@H](C)C(C)C)CC[C@]23C)CCOCC1 [Example 27, (1S,4aR,6aS,7R,8R,10aR,10bR,12aR,14R,15R)-14-(5-amino-2H-tetrazol-2-yl)-8-[(1R)-1,2-dimethylpropyl]-15-[[tetrahydro-4-(methylamino)-2H-pyran-4-yl]methoxy]-1,6,6a,7,8,9,10,10a,10b,11,12,12a-dodecahydro-1,6a,8,10a-tetramethyl-4H-1,4a-propano-2H-phenanthro[1,2-c]pyran-7-carboxylic acid]"
7,46.4 nM,"CCNC(C)(COC1C(n2ncnn2)CC23COCC1(C)C2CCC1C3=CCC2(C)C(C(=O)O)C(C)(C(C)C(C)C)CCC12C)C(C)C [Example 109, (1S,4aR,6aS,7R,8R,10aR,10bR,12aR,14R,15R)-8-[(1R)-1,2-dimethylpropyl]-15-[[(25)-2-(ethylamino)-2,3-dimethylbutyl]oxy]-14-(2H-tetrazol-2-yl)-1,6,6a,7,8,9,10,10a,10b,11,12,12a-dodecahydro-1,6a,8,10a-tetramethyl-4H-1,4a-propano-2H-phenanthro[1,2-c]pyran-7-carboxylic acid]"

row,Compound,IC50
1,"CNC(C)(CCF)CO[C@H]1[C@H](n2nnc(N)n2)C[C@@]23COC[C@]1(C)[C@@H]2CC[C@H]1C3=CC[C@@]2(C)[C@H](C(=O)O)[C@@](C)([C@H](C)C(C)C)CC[C@]12C (stereo partly drawn) [Example 129, (1S,4aR,6aS,7R,8R,10aR,10bR,12aR,14R,15R)-14-(5-amino-2H-tetrazol-2-yl)-8-[(1R)-1,2-dimethylpropyl]-15-[4-fluoro-2-methyl-2-(methylamino)butoxy]-1,6,6a,7,8,9,10,10a,10b,11,12,12a-dodecahydro-1,6a,8,10a-tetramethyl-4H-1,4a-propano-2H-phenanthro[1,2-c]pyran-7-carboxylic acid]",7.43 nM
2,"CCN(C)C(C)(CCOC)CO[C@H]1[C@H](n2nnc(N)n2)C[C@@]23COC[C@]1(C)[C@@H]2CC[C@H]1C3=CC[C@@]2(C)[C@H](C(=O)O)[C@@](C)([C@H](C)C(C)C)CC[C@]12C (stereo partly drawn) [Example 127, (1S,4aR,6aS,7R,8R,10aR,10bR,12aR,14R,15R)-14-(5-amino-2H-tetrazol-2-yl)-8-[(1R)-1,2-dimethylpropyl]-15-[2-(ethylmethylamino)-4-methoxy-2-methylbutoxy]-1,6,6a,7,8,9,10,10a,10b,11,12,12a-dodecahydro-1,6a,8,10a-tetramethyl-4H-1,4a-propano-2H-phenanthro[1,2-c]pyran-7-carboxylic acid]",30.9 nM
3,"CC(C)[C@@H](C)[C@@]1(C)CC[C@]2(C)[C@H]3CC[C@@H]4[C@@]5(COC[C@@]4(C)[C@@H](OCC(C)(C(C)C)N(C)C)[C@H](n4ncnn4)C5)C3=CC(=O)[C@@]2(C)[C@@H]1C(=O)O (stereo partly drawn) [Example 4B, (1S,4aR,6aS,7R,8R,10aR,10bR,12aR,14R,15R)-15-[2-(dimethylamino)-2,3-dimethylbutoxy]-8-[(1R)-1,2-dimethylpropyl]-14-(2H-tetrazol-2-yl)-1,6,6a,7,8,9,10,10a,10b,11,12,12a-dodecahydro-1,6a,8,10a-tetramethyl-6-oxo-4H-1,4a-propano-2H-phenanthro[1,2-c]pyran-7-carboxylic acid]",63.1 nM
